Measurements taken from article PMC3277506, “Extra-Renal Elimination of Uric Acid via Intestinal Efflux Transporter BCRP/ABCG2” (PLoS ONE, 2012).
Like-named read-outs stand apart in the source and are kept apart here.

How the values were obtained:
Caco-2 cells = experiment: Bidirectional transcellular transport of [14C]uric acid in Caco-2 cells; format: in vitro ADME, human; conditions: elacridar 2 µM, Ko143 1 µM, verapamil 100 µM, MK571 10 µM
Method: Caco-2 cells were obtained from the American Type Culture Collection (Rockville, MD). Caco-2 cells were cultured in Dulbecco's modified Eagle's medium (D-MEM) (Invitrogen, Carlsbad, CA) supplemented with 10% (v/v) fetal bovine serum (Invitrogen), 100 units/mL benzylpenicillin, 100 µg/mL streptomycin, 1% (v/v) MEM non-essential amino acid solution (Invitrogen) at 37°C under an atmosphere of 5% CO2 in air. For bidirectional transport studies, Caco-2 cells were cultured on Transwell filter membrane inserts (BD Falcon, surface area 0.9 cm^2 and pore size 3 µm) at a density of 6.4×10^4 cells/cm^2 for 21 days before use for each experiment. […] Inhibitor was added to only apical side. Transport of [^14C]uric acid was measured in two directions, namely apical (AP)-to-basal (BL) and BL-to-AP directions. An aliquot of transport buffer was obtained from the donor side at 5 min for measurement of initial concentration, and from the receiver side at 30, 60, 90 and 120 min. Transport studies were performed at 37°C and pH 7.4.
The apparent permeability (Papp, cm/sec) of [^14C]uric acid across the cell monolayer was calculated using the following equation: [drawing 4] where Q is the amount of [^14C]uric acid transported over time t. Cd is the initial concentration in the donor side and A is the surface area of membrane.

rBcrp [1] = target: T1, rBcrp (Rattus norvegicus, UniProt Q80W57); experiment: [14C]uric acid uptake by rBcrp-expressing membrane vesicles; format: biochemical; design: purchased GenoMembrane Inc. (Yokohama, Japan); host or cells: Sf9 cells; conditions: [14C]uric acid uptake by vesicles, inhibitor concentrations only in Fig. 2C
T1 sequence (Q80W57 1-657): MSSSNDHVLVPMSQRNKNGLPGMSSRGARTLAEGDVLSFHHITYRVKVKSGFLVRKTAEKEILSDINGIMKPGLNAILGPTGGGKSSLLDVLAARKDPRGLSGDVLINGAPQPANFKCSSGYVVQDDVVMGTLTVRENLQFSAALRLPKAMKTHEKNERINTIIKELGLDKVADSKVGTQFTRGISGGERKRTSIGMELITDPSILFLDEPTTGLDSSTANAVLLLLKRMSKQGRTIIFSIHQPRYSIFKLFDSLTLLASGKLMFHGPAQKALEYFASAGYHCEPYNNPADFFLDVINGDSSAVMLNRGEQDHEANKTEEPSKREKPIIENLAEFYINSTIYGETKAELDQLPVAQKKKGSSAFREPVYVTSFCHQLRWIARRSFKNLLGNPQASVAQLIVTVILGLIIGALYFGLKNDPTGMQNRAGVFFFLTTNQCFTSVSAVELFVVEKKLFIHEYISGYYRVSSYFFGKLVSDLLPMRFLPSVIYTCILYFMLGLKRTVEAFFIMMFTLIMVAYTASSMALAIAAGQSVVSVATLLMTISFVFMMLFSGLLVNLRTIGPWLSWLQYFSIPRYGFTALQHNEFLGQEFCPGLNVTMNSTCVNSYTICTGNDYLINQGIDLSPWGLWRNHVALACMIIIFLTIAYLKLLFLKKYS
Method: hBCRP/rBcrp, hMRP2/rMrp2, or hMDR1-expressing membrane vesicles prepared from Sf9 cells were purchased from GenoMembrane Inc. (Yokohama, Japan). Uptake experiments were conducted as described previously. Briefly, after a pre-incubation for 5 min at 37°C, membrane vesicles (50 µg protein/50 µL final reaction volume) were incubated for 5 min at 37°C in the presence of 4 mM ATP or AMP in assay buffer (1 M KCl, 1 M MgCl2, and 100 mM MOPS-Tris, pH 7.0) containing [^14C]uric acid (1 µCi/mL). The uptake reaction was terminated by adding 1 mL ice-cold washing buffer (1 M KCl, and 100 mM MOPS-Tris, pH 7.0) to the membrane solution, and the mixture was rapidly filtered through a nitrocellulose filter (0.45 µm pore size, Millipore, Bedford, MA). The filters were washed twice with 5 mL ice-cold washing buffer. The filters were dried and dissolved in Clearsol-I for quantitation of radioactivity.

rBcrp [2] = target: T1, rBcrp; experiment: Effect of elacridar on intestinal secretion of uric acid, in situ intestinal closed loop method, oxonate-treated rats; format: in vivo; conditions: for Intestinal secretory clearance of uric acid, % of that in elacridar-untreated rats: 10 µM elacridar (Fig. 1A); for Intestinal secretory clearance of uric acid in the presence of elacridar: 10 µM elacridar, oxonate-treated rats
Method: We evaluated intestinal secretion of endogenous uric acid according to the method described previously, with some modifications. Rats were anesthetized with 50% urethane and treated with oxonate by the same method as in the in vivo animal study described above. Intestinal closed loops were made at different segments: jejunum (10 cm), ileum (10 cm), and colon (3–5 cm). Phosphate-buffered solution (PB, 0.075 M NaH2PO4 - 0.075 M Na2HPO4, pH 6.5) or inhibitor-containing PB was injected into the intestinal loop. After 60 min, the remaining luminal content in each loop was washed out and collected for quantitation. Blood was obtained from the jugular vein at 1, 20, 40 and 60 min. Plasma was obtained by centrifugation and used for quantitation.
The following equation was used to calculate intestinal secretory clearance (µL/min/cm loop) and estimated total intestinal secretory clearance (CLintestine, estimated) (mL/min): [drawing 1] [drawing 2] [drawing 3] where A is the amount of uric acid secreted into the intestinal lumen of each loop for 60 min, L is the length of the intestine, and AUC is area under the plasma concentration-time curve.

[3] = cited from earlier work
[4] = substrate: O=c1[nH]c(=O)c2[nH]c(=O)[nH]c2[nH]1; experiment: [14C]uric acid uptake by rBcrp-expressing membrane vesicles; format: biochemical, rat; conditions: other: ATP-dependent uptake, maximum uric acid concentration 5 mM; pH 7.0; 37.0 °C

With `COc1ccc2c3c([nH]c2c1)[C@H](CC(C)C)N1C(=O)[C@H](CCC(=O)OC(C)(C)C)NC(=O)[C@@H]1C3` [Ko143, reference compound] the “Effect on polarized transport of uric acid across Caco-2 cell monolayer” value (from here on “Effect on polarized transport”) (Caco-2 cells) was “significantly reduced” and the “Inhibition of rBcrp-mediated transport of uric acid” value (from here on “Inhibition”) (rBcrp [1]) was “strongly inhibited”.

For `CN(C)C(=O)CCSC(SCCC(=O)O)c1cccc(/C=C/c2ccc3ccc(Cl)cc3n2)c1` (centres unmarked) [MK571, reference compound], the “Effect on polarized transport” value (Caco-2 cells) was “significantly reduced”.

For `COc1cc2c(cc1OC)CN(CCc1ccc(NC(=O)c3cccc4c(=O)c5cccc(OC)c5[nH]c34)cc1)CC2` [elacridar], the “Effect on polarized transport” value (Caco-2 cells) was “significantly reduced”, the “Intestinal secretory clearance of uric acid, % of that in elacridar-untreated rats” value (rBcrp [2]; colon) was 30% and the “Intestinal secretory clearance of uric acid in the presence of elacridar” value (shortened to “Intestinal secretory clearance … of elacridar”) (rBcrp [2]; colon) was 0.23±0.04 µL/min/cm loop. For the same molecule, the “Ileal secretion of uric acid, % of the control” value (rBcrp [2]; ileum, 0.1 µM elacridar (Fig. 3A)) was 53%, the “Intestinal secretory clearance of uric acid, % of that in elacridar-untreated rats” value (rBcrp [2]; ileum) was 52% and the “Intestinal secretory clearance … of elacridar” value (rBcrp [2]; ileum) was 0.82±0.12 µL/min/cm loop. The “Intestinal secretory clearance of uric acid, % of that in elacridar-untreated rats” value (rBcrp [2]; jejunum) was 55%, the “Intestinal secretory clearance … of elacridar” value (rBcrp [2]; jejunum) was 0.27±0.04 µL/min/cm loop and the “Inhibition” value (rBcrp [1]) was “strongly inhibited”.

With `C[C@]12CC[C@@H]3c4ccc(OS(=O)(=O)O)cc4CC[C@H]3[C@@H]1CCC2=O` [estrone-3-sulfate] the “Inhibition” value (rBcrp [1]) was “strongly inhibited”.

With `CC(C(=O)O)c1cccc(C(=O)c2ccccc2)c1` (centres unmarked) [ketoprofen] the “Inhibition” value (rBcrp [1]) was “not affected”.

For `CCCCc1nc(Cl)c(CO)n1Cc1ccc(-c2ccccc2-c2nn[nH]n2)cc1` [losartan], the “Effect on SUA level” value ([3]; drugs in clinical use) is given as “decrease”.

With `CO[C@H]1/C=C/O[C@@]2(C)Oc3c(C)c(O)c4c(O)c(c(/C=N/N5CCN(C)CC5)c(O)c4c3C2=O)NC(=O)/C(C)=C\C=C\[C@H](C)[C@H](O)[C@@H](C)[C@@H](O)[C@@H](C)[C@H](OC(C)=O)[C@@H]1C` [rifampicin] the “Inhibition” value (rBcrp [1]) was “moderately”.

For `O=C(O)c1ccccc1O` [salicylic acid], the “Effect on SUA level” value ([3]; high dose) is listed as “decrease”, the “Effect on SUA level” value ([3]; low dose) is listed as “increase” and the “Inhibition” value (rBcrp [1]) is listed as “not affected”.

B1: rBcrp (Rattus norvegicus) (protein)
chain: T1 sequence (Q80W57 1-657)
notes: purchased GenoMembrane Inc. (Yokohama, Japan); host or cells: Sf9 cells
In the case of B1, the Km [4] is reported as 12.5 ± 0.77 mM.
